From patent publication US20260272865A1, “HYDROXYPHENYL PROPANOATE COMPOUNDS FOR TUMOUR IMMUNOTHERAPY, COMPOSITIONS AND USES THEREOF” (UTI LIMITED PARTNERSHIP, priority 2023, published 2026)

Columns and labels:
[1] = test system: B16.F10 melanoma tumours; experiment: Subcutaneous B16.F10 melanoma in IMDM-CR mice: overall survival; format: in vivo, mouse
[2] = test system: NF-κB pathway; experiment: NF-κB activity reporter assay in THP1-Dual cells; format: cell-based, human
Description: NF-κB and IRF induction assays were performed using mouse RAW-Dual™ (InvivoGen) and human THP1-Dua™ (InvivoGen) reporter cell lines. The cells were resuspended in freshly prepared test media at a concentration of 1.0×10^6 cells/mL for RAW-Dual™ and 5.0×10^5 cells/mL for THP1-Dual™. 180 μL of cells were seeded per well in a standard 96-well plate and optimized the concentration of several PRR agonists that trigger NF-κB and IRF. To test the metabolite effect on these pathways, 10 μL of the optimized receptor agonist, 10 μL of the 2 mM metabolite solution or vehicle was added to each well, making a final volume of 200 μL. To neutralize IL-1 receptor signalling, anti-IL-1a (clone 7D4, InvivoGen) and anti-IL-1β (clone 4H5, InvivoGen) antibodies were added and IgG1 isotype (clone T8E5, InvivoGen) was used as a control, as per manufacturer's recommendation. NF-κB activity was determined by measuring secreted embryonic alkaline phosphatase (SEAP) levels using QUANTI-Blue™ solution (InvivoGen). After aliquoting 20 μL of cell culture supernatant into 180 μL of QUANTI-Blue™, the conversion of color to blue was monitored and SEAP levels were determined using a SpectraMax i3 from Molecular Devices at 650 nm. To assess IRF induction, secreted lucia luciferase levels were measured in the culture medium using QUANTI-Luc™ solution (InvivoGen). 20 μL of cell culture supernatant was aliquoted into 50 μL of QUANTI-Luc™ solution and the luminescence reading was immediately recorded using the SpectraMax i3.

[3] = Maximum tolerable dose and body weight of mice given metabolite intraperitoneally; format: in vivo; conditions: 83 mg/kg body weight, given every 48 hours, intraperitoneal
[4] = molecular target: T1, GSDMD (Homo sapiens, UniProt P57764); experiment: Thermal proteomic profiling (TPP) in intact THP1-Dual cells; format: binding
T1 construct: host or cells: THP1-Dual cells (human monocytic reporter line)
T1 sequence (P57764 1-484): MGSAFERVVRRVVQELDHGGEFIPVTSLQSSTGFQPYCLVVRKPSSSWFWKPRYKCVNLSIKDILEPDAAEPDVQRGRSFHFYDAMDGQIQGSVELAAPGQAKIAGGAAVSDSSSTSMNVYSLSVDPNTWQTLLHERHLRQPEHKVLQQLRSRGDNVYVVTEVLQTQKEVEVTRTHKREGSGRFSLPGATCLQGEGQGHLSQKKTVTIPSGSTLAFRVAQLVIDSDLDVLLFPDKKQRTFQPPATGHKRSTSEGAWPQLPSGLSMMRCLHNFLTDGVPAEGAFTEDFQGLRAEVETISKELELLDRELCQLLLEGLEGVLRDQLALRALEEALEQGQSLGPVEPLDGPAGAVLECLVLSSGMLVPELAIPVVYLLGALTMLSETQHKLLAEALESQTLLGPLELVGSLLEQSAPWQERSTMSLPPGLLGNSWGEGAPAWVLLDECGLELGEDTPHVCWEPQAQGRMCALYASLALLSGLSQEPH
Description: 24 mL of THP1-Dual™ cells (at a density of 1.5×10^6 cells/mL) were treated with 2 mM metabolite or vehicle control for 16 hours. The cells were then centrifuged at 340×g for 5 minutes at 4° C., resuspended in 20 mL of ice-cold PBS, and centrifuged again. The cells were resuspended in 1200 μL of PBS, divided into 10 aliquots of 100 μL in 0.2 mL PCR tubes and centrifuged at 325×g for 2 minutes at 4° C. 80 μL of the PBS supernatant was removed using a pipette and the tubes were gently tapped to resuspend the cells. Each of the metabolite and vehicle-treated cell tubes were then heated in parallel in a PCR machine for 3 minutes at temperatures ranging from 37° C. to 67° C. […] The entire content was centrifuged at 100,000×g for 20 minutes at 4° C., the supernatant was removed into a fresh tube, and the protein concentration of the 37° C. sample was measured. […] The volume of lysate that gave 200 μg of protein at the 37° C. temperature point was determined and removed into a fresh tube for all other temperature points.
The proteins were cleaned up and the peptides digested following previously described methods (Science 346, (2014); Nat. Protoc. 10, 1567-1593 (2015)). […] The next day, the digested peptides were transferred to a fresh Eppendorf™ tube and the concentration of peptides measured in the 37° C. temperature point. […]

Structure (SMILES): O=C(O)CCc1ccccc1O [Compound I-1, 3-(2-hydroxyphenyl)propanoic acid]
- overall survival, treatment initiated seven days after implantation ([1]; IMDM-CR mice, B16.F10, treatment started 7 days after implantation): still effective
- overall survival, combination with anti-PD-L1 vs anti-PD-L1 alone ([1]; female IMDM-CR mice, B16.F10 tumours, 3,2-HPP i.p. plus anti-PD-L1): further improvement
- overall survival / immune surveillance of B16.F10 melanoma ([1]; female IMDM-CR mice, i.p. treatment from day 1): increased the overall survival
- NF-κB pathway activation combined with PRR agonists ([2]; LPS or other NF-κB pathway inducers): potentiate
- NF-κB pathway activation when treated with LPS ([2]; LPS, 16 hours, vs vehicle): potentiates
- toxicity or weight loss [3]: without toxicity or weight loss
- GSDMD protein denaturation curve ([4]; NPARC test): impacted
- number of potential protein targets identified (NPARC) ([4]; proteome-wide, 2 mM metabolite, 16 hours): 647
